Test results published in patent publication US20150105252A1, “SUBSTITUTED PYRAZOLES AS HERBICIDES” (E I DU PONT DE NEMOURS AND COMPANY, priority 2013, published 2015).

What was measured:
common ragweed [1] = experiment: Test A postemergence; type: in vivo, Ambrosia elation
Method in brief: (§1)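 Growth medium: loam soil blended with sand. Preemergence treatment used a directed soil spray right after planting; postemergence treatment targeted seedlings at one to two leaves (2–10 cm height). Response was judged by eye relative to untreated plants about 10 days later on a 0–100 control scale.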

barnyardgrass [2] = experiment: Test A postemergence; type: in vivo, Echinochloa crus-galli
Method in brief: as §1

wheat = experiment: Test A postemergence; type: in vivo, Triticum aestivum; settings: Postemergence
Method in brief: as §1

rice = experiment: Test B flood; type: in vivo, Oryza sativa; settings: 250 g ai/ha, visual rating on 0 to 100 scale (0 no effect, 100 complete control), 13 to 15 days
Method in brief: (§2)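 Visual ratings on a 0–100 scale, where 0 means no effect and 100 means complete control, were assigned by comparison with controls 13 to 15 days after treatment. Compounds went into paddy water over 2-leaf plants flooded to 3 cm.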

Italian ryegrass [3] = experiment: Test A preemergence; type: in vivo, Lolium multiflorum; settings: for Italian Ryegrass plant response rating (0 to 100 scale): 125 g ai/ha, visual injury approx. 10 days after treatment; for Italian Ryegrass plant response rating: 500 g ai/ha, visual injury after approx. 10 days, 0 to 100 scale (0 no effect, 100 complete control)
Method in brief: as §1

barnyardgrass [4] = experiment: Test B flood; type: in vivo, Echinochloa crus-galli; settings: 250 g ai/ha, visual rating on 0 to 100 scale (0 no effect, 100 complete control), 13 to 15 days
Method in brief: as §2

sedge, umbrella = experiment: Test B flood; type: in vivo, Cyperus difformis; settings: 250 g ai/ha, visual rating on 0 to 100 scale (0 no effect, 100 complete control), 13 to 15 days
Method in brief: as §2

ducksalad = experiment: Test B flood; type: in vivo, Heteranthera limosa; settings: 250 g ai/ha, visual rating on 0 to 100 scale (0 no effect, 100 complete control), 13 to 15 days
Method in brief: as §2

barnyardgrass [5] = experiment: Test A preemergence; type: in vivo, Echinochloa crus-galli; settings: preemergence; for Barnyardgrass plant response rating (0 to 100 scale, 0 is no effect, 100 is complete control): 125 g ai/ha, visual injury approx. 10 days after treatment; for Barnyardgrass plant response rating: 500 g ai/ha, visual injury after approx. 10 days, 0 to 100 scale (0 no effect, 100 complete control)
Method in brief: as §1

corn = experiment: Test A postemergence; type: in vivo, Zea mays
Method in brief: as §1

pigweed [6] = experiment: Test A postemergence; type: in vivo, Amaranthus retroflexus; settings: Postemergence
Method in brief: as §1

pigweed [7] = experiment: Test A preemergence; type: in vivo, Amaranthus retroflexus; settings: preemergence, 125 g ai/ha, visual injury approx. 10 days after treatment
Method in brief: as §1

Italian ryegrass [8] = experiment: Test A postemergence; type: in vivo, Lolium multiflorum; settings: Postemergence
Method in brief: as §1

kochia [9] = experiment: Test A postemergence; type: in vivo, Kochia scoparia; settings: Postemergence
Method in brief: as §1

blackgrass = experiment: Test A postemergence; type: in vivo, Alopecurus myosuroides
Method in brief: as §1

foxtail, giant [10] = experiment: Test A preemergence; type: in vivo, Setaria faberii; settings: preemergence; for Foxtail, Giant plant response rating (0 to 100 scale): 125 g ai/ha, visual injury approx. 10 days after treatment; for Foxtail, Giant plant response rating: 500 g ai/ha, visual injury after approx. 10 days, 0 to 100 scale (0 no effect, 100 complete control)
Method in brief: as §1

foxtail, giant [11] = experiment: Test A postemergence; type: in vivo, Setaria faberii
Method in brief: as §1

kochia [12] = experiment: Test A preemergence; type: in vivo, Kochia scoparia; settings: 125 g ai/ha, visual injury approx. 10 days after treatment
Text: (§3) Seeds of plant species selected from barnyardgrass (Echinochloa crus-galli), kochia (Kochia scoparia), common ragweed (Ambrosia elation), Italian ryegrass (Lolium multiflorum), crabgrass, large (large crabgrass, Digitaria sanguinalis), foxtail, giant (giant foxtail, Setaria faberii), morningglory (Ipomoea spp.), pigweed (redroot pigweed, Amaranthus retroflexus), velvetleaf (Abutilon theophrasti), wheat (Triticum aestivum), and corn (Zea mays) were planted into a blend of loam soil and sand and treated preemergence with a directed soil spray using test chemicals formulated in a non-phytotoxic solvent mixture which included a surfactant.
(§4) At the same time, plants selected from these crop and weed species and also blackgrass (Alopecurus myosuroides), and galium (catchweed bedstraw, Galium aparine) were planted in pots containing the same blend of loam soil and sand and treated with postemergence applications of test chemicals formulated in the same manner. Plants ranged in height from 2 to 10 cm and were in the one- to two-leaf stage for the postemergence treatment. Treated plants and untreated controls were maintained in a greenhouse for approximately 10 days, after which time all treated plants were compared to untreated controls and visually evaluated for injury. Plant response ratings, summarized in Table A, are based on a 0 to 100 scale where 0 is no effect and 100 is complete control. A dash (-) response means no test result.

common ragweed [13] = experiment: Test A preemergence; type: in vivo, Ambrosia elation; settings: for Common Ragweed plant response rating (0 to 100 scale): 125 g ai/ha, visual injury approx. 10 days after treatment; for Common Ragweed plant response rating: 500 g ai/ha, visual injury after approx. 10 days, 0 to 100 scale (0 no effect, 100 complete control)
Method in brief: as §1

galium = experiment: Test A postemergence; type: in vivo, Galium aparine; settings: Postemergence
Text: as §3, §4

[14] = Postemergence, 500 g ai/ha, 0 to 100 scale (0 no effect, 100 complete control)
[15] = postemergence, 125 g ai/ha, about 10 days, visual rating on 0 to 100 scale (0 no effect, 100 complete control)
[16] = 125 g ai/ha, 0 to 100 scale, 0 no effect, 100 complete control
[17] = 500 g ai/ha, 0 to 100 scale (0 no effect, 100 complete control)
[18] = Postemergence, 125 g ai/ha, 0 to 100 scale, 0 no effect, 100 complete control

SMILES	Common Ragweed plant response rating (common ragweed [1]; [14])	Barnyardgrass plant response rating (barnyardgrass [2]; [14])	Wheat plant response rating (wheat; [16])	Wheat plant response rating (wheat; [17])	Plant response rating, Rice (rice)	Italian Ryegrass plant response rating (0 to 100 scale) (Italian ryegrass [3])	Italian Ryegrass plant response rating (Italian ryegrass [3])	Plant response rating, Barnyardgrass (barnyardgrass [4])	Plant response rating, Sedge, Umbrella (sedge, umbrella)	Plant response rating, Ducksalad (ducksalad)	Barnyardgrass plant response rating (0 to 100 scale, 0 is no effect, 100 is complete control) (barnyardgrass [5])	Barnyardgrass plant response rating (barnyardgrass [5])	Corn plant response rating (corn; [14])	Pigweed plant response rating (pigweed [6]; [16])	Pigweed plant response rating (pigweed [6]; [17])	Pigweed plant response rating (0 to 100 scale) (pigweed [7])	Italian Ryegrass plant response rating (Italian ryegrass [8]; [16])	Italian Ryegrass plant response rating (Italian ryegrass [8]; [17])	Kochia plant response rating (kochia [9]; [16])	Kochia plant response rating (kochia [9]; [17])	further results
CCONC(=O)c1cc(CC)n(Cc2cc(OC(F)F)nn2C)n1 [Compound 207]	30	80	10	20	0	0	20	0	0	0	0	90	60	60	100	50	0	50	30	60	Common Ragweed plant response rating (common ragweed [1]; [15]): 0; Barnyardgrass plant response rating (barnyardgrass [2]; [15]): 0; Corn plant response rating (corn; [15]): 30; Blackgrass plant response rating (blackgrass; [14]): 60; Blackgrass plant response rating (blackgrass; [15]): 0; Foxtail, Giant plant response rating (0 to 100 scale) (foxtail, giant [10]): 0; Foxtail, Giant plant response rating (foxtail, giant [10]): 20; Foxtail, Giant plant response rating (foxtail, giant [11]; [14]): 60; Foxtail, Giant plant response rating (foxtail, giant [11]; [15]): 0; Kochia plant response rating (0 to 100 scale) (kochia [12]): 30; Common Ragweed plant response rating (0 to 100 scale) (common ragweed [13]): 0; Common Ragweed plant response rating (common ragweed [13]): 40; Galium plant response rating (galium; [16]): 40; Galium plant response rating (galium; [17]): 80
CCONC(=O)c1cc(CC)n(Cc2cc(C(F)(F)F)nn2C(C)C)n1 [Compound 208]	20	10	0	0	0	0	10	0	0	0	0	10	10	40	80	20	0	0	20	50	Common Ragweed plant response rating (common ragweed [1]; [15]): 0; Barnyardgrass plant response rating (barnyardgrass [2]; [15]): 0; Corn plant response rating (corn; [15]): 0; Blackgrass plant response rating (blackgrass; [14]): 10; Blackgrass plant response rating (blackgrass; [15]): 0; Foxtail, Giant plant response rating (0 to 100 scale) (foxtail, giant [10]): 0; Foxtail, Giant plant response rating (foxtail, giant [10]): 30; Foxtail, Giant plant response rating (foxtail, giant [11]; [14]): 10; Foxtail, Giant plant response rating (foxtail, giant [11]; [15]): 0; Kochia plant response rating (0 to 100 scale) (kochia [12]): 10; Common Ragweed plant response rating (0 to 100 scale) (common ragweed [13]): 0; Common Ragweed plant response rating (common ragweed [13]): 10; Galium plant response rating (galium; [16]): 20; Galium plant response rating (galium; [17]): 50
CCc1cc(C(=O)NC2CC2)nn1Cc1cc(OC(F)F)nn1C [Compound 211]	20	50	0	20	0	0	20	0	0	0	0	70	40	70	100	50	0	30	80	90	Common Ragweed plant response rating (common ragweed [1]; [18]): 0; Barnyardgrass plant response rating (barnyardgrass [2]; [18]): 0; Corn plant response rating (corn; [18]): 30; Blackgrass plant response rating (blackgrass; [18]): 0; Blackgrass plant response rating (blackgrass; [14]): 50; Foxtail, Giant plant response rating (0 to 100 scale) (foxtail, giant [10]): 0; Foxtail, Giant plant response rating (foxtail, giant [10]): 80; Foxtail, Giant plant response rating (foxtail, giant [11]; [18]): 0; Foxtail, Giant plant response rating (foxtail, giant [11]; [14]): 60; Kochia plant response rating (0 to 100 scale) (kochia [12]): 50; Common Ragweed plant response rating (0 to 100 scale) (common ragweed [13]): 0; Common Ragweed plant response rating (common ragweed [13]): 40; Galium plant response rating (galium; [16]): 20; Galium plant response rating (galium; [17]): 70
CCc1cc(C(=O)NC2CC2)nn1Cc1cc(C(F)(F)F)nn1C(C)C [Compound 212]	10	10	0	10	0	0	0	0	0	0	0	0	10	40	80	20	0	10	10	70	Common Ragweed plant response rating (common ragweed [1]; [18]): 0; Barnyardgrass plant response rating (barnyardgrass [2]; [18]): 0; Corn plant response rating (corn; [18]): 0; Blackgrass plant response rating (blackgrass; [18]): 0; Blackgrass plant response rating (blackgrass; [14]): 10; Foxtail, Giant plant response rating (0 to 100 scale) (foxtail, giant [10]): 0; Foxtail, Giant plant response rating (foxtail, giant [10]): 0; Foxtail, Giant plant response rating (foxtail, giant [11]; [18]): 0; Foxtail, Giant plant response rating (foxtail, giant [11]; [14]): 10; Kochia plant response rating (0 to 100 scale) (kochia [12]): 0; Common Ragweed plant response rating (0 to 100 scale) (common ragweed [13]): 0; Common Ragweed plant response rating (common ragweed [13]): 0; Galium plant response rating (galium; [16]): 20; Galium plant response rating (galium; [17]): 40
CCc1cc(C(=O)NCC(F)(F)F)nn1Cc1cc(C(F)(F)F)nn1C(C)C [Compound 213]	0	0	0	0	0	0	0	0	0	0	0	0	0	0	0	0	0	0	0	0	Common Ragweed plant response rating (common ragweed [1]; [18]): 0; Barnyardgrass plant response rating (barnyardgrass [2]; [18]): 0; Corn plant response rating (corn; [18]): 0; Blackgrass plant response rating (blackgrass; [18]): 0; Blackgrass plant response rating (blackgrass; [14]): 0; Foxtail, Giant plant response rating (0 to 100 scale) (foxtail, giant [10]): 0; Foxtail, Giant plant response rating (foxtail, giant [10]): 0; Foxtail, Giant plant response rating (foxtail, giant [11]; [18]): 0; Foxtail, Giant plant response rating (foxtail, giant [11]; [14]): 0; Kochia plant response rating (0 to 100 scale) (kochia [12]): 0; Common Ragweed plant response rating (0 to 100 scale) (common ragweed [13]): 0; Common Ragweed plant response rating (common ragweed [13]): 0; Galium plant response rating (galium; [16]): 0; Galium plant response rating (galium; [17]): 0
